According to ChEMBL document CHEMBL1201862, “PubChem BioAssay data set” (2004):
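Interpolation was linear, between the two tested concentrations surrounding the appropriate level; five concentrations were tested over 48 hours in 96-well plates. GI50 is the concentration that inhibits growth by half.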 Active and inactive are the calls of the source. Rule as the data show it: active = GI50 up to about 1.1 µM and inactive = higher.

Assays:
Test in all cases: growth of human tumour cells (NCI), 48 h
A549 = test system: A549
ACHN = test system: ACHN
CAKI-1 = test system: CAKI-1
CCRF-CEM = test system: CCRF-CEM
COLO 205 = test system: COLO 205
EKVX = test system: EKVX
HL-60 = test system: HL-60
HOP-62 = test system: HOP-62
K562 = test system: K562
MOLT-4 = test system: MOLT-4
NCI-H226 = test system: NCI-H226
NCI-H460 = test system: NCI-H460
NCI-H522 = test system: NCI-H522
OVCAR-3 = test system: OVCAR-3
OVCAR-4 = test system: OVCAR-4
SK-MEL-2 = test system: SK-MEL-2
SR = test system: SR
UACC-62 = test system: UACC-62
UO-31 = test system: UO-31
HCC 2998 = test system: HCC 2998

Measured: GI50

Oc1ccc(-c2nc3ccccc3s2)cc1
inactive: A549 41.3 µM | ACHN 45.8 µM | CAKI-1 29.2 µM | CCRF-CEM 26.2 µM | COLO 205 45.1 µM | EKVX 21.5 µM | HL-60 30.3 µM | HOP-62 37 µM | K562 29 µM | MOLT-4 25.8 µM | NCI-H226 43.3 µM | NCI-H460 38.1 µM | NCI-H522 15.5 µM | OVCAR-3 34.5 µM | OVCAR-4 48.1 µM | SK-MEL-2 20.4 µM | SR 32.7 µM | UACC-62 32.4 µM | UO-31 51.5 µM

CCNC(=O)Nc1ccccn1
inactive: A549 > 100 µM | ACHN > 100 µM | CAKI-1 > 100 µM | CCRF-CEM > 100 µM | COLO 205 > 100 µM | EKVX > 100 µM | HCC 2998 > 100 µM | HL-60 > 100 µM | HOP-62 > 100 µM | K562 > 100 µM | MOLT-4 > 100 µM | NCI-H226 > 100 µM | NCI-H460 > 100 µM | NCI-H522 > 100 µM | OVCAR-3 > 100 µM | OVCAR-4 > 100 µM | SR > 100 µM | UACC-62 > 100 µM | UO-31 > 100 µM

COc1ccc2c(c1)[n+]([O-])c(-c1ccccc1Cl)c(N)[n+]2[O-]
inactive: A549 94.2 µM | ACHN 86.1 µM | CAKI-1 > 100 µM | COLO 205 18.5 µM | EKVX > 100 µM | HL-60 70.3 µM | HOP-62 > 100 µM | K562 99.1 µM | MOLT-4 96.8 µM | NCI-H226 > 100 µM | NCI-H460 54.5 µM | NCI-H522 16.9 µM | OVCAR-3 40.6 µM | OVCAR-4 > 100 µM | SK-MEL-2 > 100 µM | SR > 100 µM | UO-31 99.8 µM

OCCCNCc1ccccn1
inactive: A549 > 100 µM | ACHN > 100 µM | CAKI-1 > 100 µM | CCRF-CEM > 100 µM | COLO 205 > 100 µM | EKVX > 100 µM | HL-60 68.1 µM | HOP-62 > 100 µM | K562 > 100 µM | MOLT-4 > 100 µM | NCI-H226 > 100 µM | NCI-H460 > 100 µM | NCI-H522 > 100 µM | OVCAR-3 > 100 µM | OVCAR-4 > 100 µM | SK-MEL-2 > 100 µM | SR > 100 µM | UACC-62 > 100 µM | UO-31 > 100 µM

COC(C(=O)NCCCCNC(=O)C(OC)c1ccccc1)c1ccccc1 (stereo not drawn)
inactive: A549 > 100 µM | ACHN > 100 µM | CAKI-1 > 100 µM | CCRF-CEM > 100 µM | COLO 205 > 100 µM | EKVX > 100 µM | HL-60 > 100 µM | HOP-62 > 100 µM | K562 > 100 µM | MOLT-4 > 100 µM | NCI-H226 > 100 µM | NCI-H460 > 100 µM | NCI-H522 > 100 µM | OVCAR-3 > 100 µM | OVCAR-4 > 100 µM | SK-MEL-2 > 100 µM | SR > 100 µM | UACC-62 > 100 µM | UO-31 > 100 µM

CN(CC(=O)O)Cc1c[nH]c2ccccc12
inactive: A549 > 100 µM | ACHN > 100 µM | CAKI-1 > 100 µM | CCRF-CEM > 100 µM | COLO 205 > 100 µM | EKVX > 100 µM | HL-60 > 100 µM | HOP-62 > 100 µM | K562 > 100 µM | MOLT-4 > 100 µM | NCI-H226 > 100 µM | NCI-H460 > 100 µM | NCI-H522 > 100 µM | OVCAR-3 > 100 µM | OVCAR-4 > 100 µM | SK-MEL-2 > 100 µM | SR > 100 µM | UACC-62 > 100 µM | UO-31 > 100 µM

COc1ccc(C=O)cc1OS(=O)(=O)C(F)(F)C(F)(F)C(F)(F)C(F)(F)F
inactive: A549 48.4 µM | ACHN 44.5 µM | CAKI-1 40.3 µM | CCRF-CEM 14.8 µM | COLO 205 24.5 µM | EKVX 33.3 µM | HL-60 8.75 µM | HOP-62 26.6 µM | K562 3.52 µM | MOLT-4 3.23 µM | NCI-H226 > 100 µM | NCI-H460 27.2 µM | NCI-H522 24.5 µM | OVCAR-3 27 µM | OVCAR-4 43.8 µM | SK-MEL-2 17.1 µM | SR 6.27 µM | UACC-62 21.4 µM | UO-31 22.8 µM

COC(=O)C12OC3CO[Si](C(C)C)(C(C)C)O[Si](C(C)C)(C(C)C)OC3C1Oc1nc(=O)ccn12 (stereo not drawn)
inactive: A549 15.2 µM | ACHN 17.9 µM | CAKI-1 17.7 µM | CCRF-CEM 17.3 µM | COLO 205 18.7 µM | EKVX 16.7 µM | HL-60 23.4 µM | HOP-62 18.1 µM | K562 15.4 µM | MOLT-4 12.1 µM | NCI-H226 15.8 µM | OVCAR-3 15.8 µM | OVCAR-4 17.1 µM | SK-MEL-2 17.1 µM | SR 15 µM | UACC-62 14.3 µM | UO-31 16.3 µM

O=C1c2cccc3cccc(c23)C2NCCCN12 (stereo not drawn)
inactive: A549 > 100 µM | ACHN 68.7 µM | CAKI-1 89.3 µM | CCRF-CEM 37.7 µM | COLO 205 > 100 µM | EKVX 35.7 µM | HCC 2998 62.5 µM | HL-60 > 100 µM | HOP-62 > 100 µM | K562 70.3 µM | MOLT-4 47.3 µM | NCI-H226 52.8 µM | NCI-H460 > 100 µM | NCI-H522 28.8 µM | OVCAR-3 > 100 µM | OVCAR-4 > 100 µM | SR 71 µM | UACC-62 > 100 µM | UO-31 88.5 µM

C/C(=C/CNc1ncnc2c1ncn2CCC#N)CO
inactive: A549 > 100 µM | ACHN > 100 µM | CAKI-1 > 100 µM | CCRF-CEM > 100 µM | COLO 205 > 100 µM | EKVX > 100 µM | HCC 2998 > 100 µM | HL-60 > 100 µM | HOP-62 > 100 µM | K562 > 100 µM | MOLT-4 > 100 µM | NCI-H226 > 100 µM | NCI-H460 > 100 µM | NCI-H522 > 100 µM | OVCAR-3 > 100 µM | OVCAR-4 > 100 µM | SR > 100 µM | UACC-62 > 100 µM | UO-31 > 100 µM

Cc1cc(=O)[nH]c(-n2[nH]c3c(c2=O)CCCC3)n1
inactive: A549 72.1 µM | ACHN 49.4 µM | CAKI-1 70.1 µM | CCRF-CEM 34.5 µM | COLO 205 88.9 µM | EKVX 58.2 µM | HL-60 50.5 µM | K562 52.2 µM | MOLT-4 60.8 µM | NCI-H226 > 100 µM | NCI-H460 25.9 µM | NCI-H522 > 100 µM | OVCAR-4 > 100 µM | SK-MEL-2 52.1 µM | SR 63.1 µM | UACC-62 39.2 µM | UO-31 59.6 µM
